# Experimental data as given in PubChem BioAssay AID1996.
# Settings: buffer; pH 7.4; 200.0 µM
row,SMILES,solubility kinetic [µg/mL]
1,COc1ccccc1Nc1c2c(nc3ccccc13)CCC2,37.4
2,CC1CC(C(=O)Nc2ccccc2)C(=O)O1 (stereo not given),27.2
3,Cc1ccc(CSCC(=O)Nc2ccccc2C(=O)O)cc1,> 47.3
4,CN(C)C(=O)c1ccc(NC(=O)c2sccc2-c2ccccc2)cc1,49.1
5,COC(=O)c1cc(C(=O)NCc2ccc3c(c2)OCO3)cc([N+](=O)[O-])c1,2.6
6,CCOC(=O)N1CCN(CC(O)c2c[nH]c3ccccc23)CC1 (stereo not given),> 47.6
7,COc1ccc(Cl)cc1S(=O)(=O)NC(C)C(=O)NCc1ccccn1 (stereo not given),52.8
8,N#Cc1ccc(OCc2ccc(C(=O)O)o2)cc1,> 36.5
9,O/C(=C\c1nc2ccccc2[nH]1)c1cccs1,28.3
10,O=C(CSc1nc(-c2ccc(F)cc2)cs1)NCC1CCCO1 (stereo not given),> 52.9
11,O=C(COC(=O)c1c(F)cccc1Cl)NCC1CCCCC1,40.9
12,O=C(NN1CCOCC1)c1cc(Cl)ccc1Cl,> 41.3
13,CC1CCc2sc(C(=O)NC(C)C3CCCO3)cc2C1 (stereo not given),> 44
14,O=C(Nc1ccccc1)OCCOc1cccc(Br)c1,6.6
15,Cc1ccc(C2SCC(=O)N2Cc2ccccc2)cc1 (stereo not given),21.9
16,Cc1cc(Cl)ccc1NC(=O)CN1CCCC1,> 37.9
17,Cc1cc(C)c(C#N)c(Nc2ccc(F)cc2)n1,0.8
18,CCNC(=O)Cn1cc(C(F)(F)F)cc(Cl)c1=O,> 42.4
19,COc1ccc(N=CC=C2OC(C)(C)C(C)(C)O2)cc1OC.Cl,47.1
20,COc1ccc(N(Cc2cc3ccc(C)cc3[nH]c2=O)C(=O)C2CCCO2)cc1 (stereo not given),10.1

row,SMILES,solubility kinetic [µg/mL]
1,CNc1oc(-c2ccccc2)nc1S(=O)(=O)c1ccc(C)cc1,5.3
2,O=C(O)c1cccc([N+](=O)[O-])c1C(=O)Nc1nc2ccccc2s1,> 51.5
3,Cc1ccsc1C(=O)NC1CCCCC1C (stereo not given),> 35.6
4,CN1CCC(CNC(=O)Nc2ccccc2)(c2ccccc2)CC1,> 48.5
5,O=C(COC(=O)c1ccc(Cl)nc1)Nc1cc(S(=O)(=O)N2CCOCC2)ccc1Cl,50.6
6,CC(C)c1nnc(NC(=O)C2CCCO2)s1 (stereo not given),> 36.2
7,COc1ccc(CNC(=O)C2CCN(S(C)(=O)=O)CC2)c(OC)c1,> 53.5
8,O=C(O)C1C2CCC(C2)C1C(=O)Nc1cccc([N+](=O)[O-])c1 (stereo not given),13.9
9,COc1ccc(CNCCC2(C(C)C)CCOC(C)(C)C2)cc1 (stereo not given),> 47.9
10,COc1ccc(CCNC(=O)CSc2nc3scc(-c4ccccc4)c3c(=O)[nH]2)cc1,2
11,Cc1csc(NC(=O)Cc2ccc(F)cc2)n1,> 37.5
12,O=C(Nc1cccc(F)c1)C1CCCN(c2cnccn2)C1 (stereo not given),> 45.1
13,CC1(c2cccc(Br)c2)NC(=O)N(CC(=O)c2ccc3c(c2)OCCO3)C1=O (stereo not given),12.5
14,C=CCc1ccccc1Oc1cc(F)nc(N)n1,27.7
15,CCCNC(=O)NC(=O)CN1CCCC1c1ccc2c(c1)OCCO2 (stereo not given),> 52.1
16,CC(C)C(=O)Nc1ccc2c(c1)nc(CCN1CCCCC1)n2C,> 49.3
17,Cc1ccc(NCCC(=O)c2cccc([N+](=O)[O-])c2)c(C)c1,1.7
18,Cc1ccc(N2C(=O)CCC2(C(N)=O)c2ccccc2)cc1 (stereo not given),> 44.2
19,O=C(CSc1nccn1-c1ccccc1)NO,32.1
20,COc1ccc(S(=O)(=O)N2CCOCC2)cc1NC(=O)COc1ccc(C)cc1,28.4

row,SMILES,solubility kinetic [µg/mL]
1,CCN1CCCC1CNC(=O)c1[nH]c2ccc(OC)cc2c1C (stereo not given),> 47.3
2,CC(C)COP(=O)(OCC(C)C)C(O)c1ccc(N(C)C)cc1 (stereo not given),> 51.5
3,C#CCn1c(CCNC(=O)c2ccco2)nc2ccccc21,> 44
4,COc1cccc(OC)c1C(=O)Nc1sc2c(c1C#N)CCC2,0.7
5,O=C(Nc1nc2ccccc2s1)c1c(F)cccc1Cl,0.6
6,O=C(NCc1ccc(Cl)c(Cl)c1)c1ccc2c(c1)OCO2,1.5
7,Cc1nc(SCC(=O)N2CCCCCC2)[nH]c(=O)c1C,> 44.3
8,O=[N+]([O-])c1c(NCCO)cc(N2CCC3(CC2)OCCO3)c2nonc12,> 54.8
9,O=C(CSc1cccc[n+]1[O-])NC1CCCCCCC1,39.3
10,COc1ccc(CNC(=O)C2CCCC2)cc1,28.6
11,CC1c2ccsc2CCN1C(=O)NC(=O)c1ccc(Cl)cc1 (stereo not given),1.8
12,Cc1ccc(OCC(=O)O/N=C(\N)c2ccncc2)c(C)c1,30.9
13,Cc1noc(C)c1C(=O)Nc1nc(-c2ccc(F)cc2)cs1,10.3
14,COc1ccc(CCNC(=O)C2CCC(=O)N2S(=O)(=O)c2ccc(C)cc2)cc1 (stereo not given),61.2
15,Cc1ccc(S(=O)(=O)N2CCOCC2)cc1NC(=O)COc1ccccc1Cc1ccccc1,4.4
16,CCOC(=O)c1c(C)noc1-c1ccco1,7.5
17,O=c1c2ccccc2nc(Cc2ccccc2)n1-c1cccc(O)c1,6
18,O=C(Cn1c(=O)n(CC2CS2)c2ccccc21)N1CCCCC1 (stereo not given),> 49.7
19,O=S(=O)(Nc1ccc(Cl)cn1)c1cccs1,> 41.2
20,CC(C)C(C(=O)Nc1ccccc1F)N1C(=O)c2ccccc2C1=O (stereo not given),38.4
